Assays:
[1] = Dynamic vapor sorption (DVS) moisture sorption isotherm; assay type: physicochemical; details: for solid form after DVS (XRPD): XRPD of post-DVS sample
Experimental: Samples were analyzed using a TA Instruments Q5000SA gravimetric water sorption analyzer. The weight of the sample was continuously monitored and recorded with respect to the relative humidity (RH) and time. Samples of 5-10 mg were placed in a tared, hermetically sealed aluminum DVS pan under ambient conditions. The sample pan was punctured prior to being loaded into the humidity chamber. A moisture sorption isotherm was performed at 25° C. at 10% RH intervals over a 0-90% RH range. Three cycles were carried out. If the mass gain or loss on a sorption step was less than 0.1% over 15 minutes, the next humidity interval would begin. If weight continued to change after 120 minutes at a given step, the step would time out and proceed to the next humidity interval.

[2] = Stability of Form 1 under stressed conditions (XRPD, UPLC purity, KF water content); assay type: physicochemical; details: for Purity (Week 1): week 1, UPLC; for Purity (Week 4): week 4, UPLC; for Water content (Week 5): week 5, KF
Experimental: X-ray powder diffraction patterns were obtained using a Bruker D8 equipped with a Cu Kα radiation (40 kV, 40 mA) source (λ=1.54°A), a 9-position sample holder, and a θ-2θ goniometer fitted with a Ge monochromator. The incident beam passes through a 2.0 mm divergence slit followed by a 0.2 mm antiscatter slit. The diffracted beam passes through an 8.0 mm receiving slit with 2.5° Soller slits followed by a LYNXEYE super speed detector. Samples were prepared on polished, zero-background silicon plates and run using a low background, airtight specimen dome.
A Mettler Toledo DL39 Coulometric KF Titrator was used to determine the apparent water content in samples. About 90-100 mg of the solid was used for titration. To limit the exposure of the solution to the air, the titrator opening was closed by a stopper immediately after adding samples. HYDRANAL-Coulomat AD was used as the titrant added at 40% speed. The mixing time used was 30 seconds prior to analysis.
The purity of the sample was determined using the method provided by the Analytical Development at JM. Data were collected using an Agilent […] Series UPLC system and analyzed using Chemstation software.
Form 1 solids were stored in 40° C./75% RH or 30° C./65% RH conditions. The XRPD and UPLC purity were measured at week 1 and week 4 time points. […] Additionally, water content was measured by KF at Week 5.

Compound | hygroscopicity ([1]; DVS, 25° C.) | weight change between 0-90% RH ([1]; DVS, 25° C.) | solid form after DVS (XRPD) [1] | weight change between 0-80% RH ([1]; DVS, 25° C., 0-80% RH) | weight gain observed between 80-90% RH ([1]; DVS, 25° C.) | weight gain at above 80% RH ([1]; DVS, 25° C., above 80% RH) | XRPD (Week 1) ([2]; 30° C./65% RH) | Purity (Week 1) ([2]; 30° C./65% RH) | XRPD (Week 4) ([2]; 30° C./65% RH) | Purity (Week 4) ([2]; 30° C./65% RH) | Water content (Week 5) ([2]; 30° C./65% RH) | purity determined by UPLC on storage ([2]; 40° C./75% RH or 30° C./65% RH, week 1 and week 4) | water content by KF on storage versus initial ([2]; 40° C./75% RH or 30° C./65% RH, week 5) | XRPD (Week 1) ([2]; 40° C./75% RH) | Purity (Week 1) ([2]; 40° C./75% RH) | XRPD (Week 4) ([2]; 40° C./75% RH) | Purity (Week 4) ([2]; 40° C./75% RH) | Water content (Week 5) ([2]; 40° C./75% RH)
CNS(=O)(=O)Nc1nccc(Cc2c(C)c3ccc(Oc4ncccn4)cc3oc2=O)c1F.[K+] [Form 10] | hygroscopic | about 5.5% | converted to Form 1 | – | – | – | – | – | – | – | – | – | – | – | – | – | – | –
CNS(=O)(=O)Nc1nccc(Cc2c(C)c3ccc(Oc4ncccn4)cc3oc2=O)c1F [Form 8] | slightly hygroscopic | – | converted to Form 1 | up to 0.44% | > 0.27% | at least 1.12% | – | – | – | – | – | – | – | – | – | – | – | –
CNS(=O)(=O)Nc1nccc(Cc2c(C)c3ccc(Oc4ncccn4)cc3oc2=O)c1F [Form 1] | slightly hygroscopic | about 1.8% | no form change | – | > 1% | – | Form 1 | 99.2% | Form 1 | 99.2% | 0.6% | remained statistically unchanged | consistent with initial water content | Form 1 | 99.2% | Form 1 | 99.2% | 0.5%
